Reference: patent publication US10301302B2, “Crystalline forms of N-(2-chloro-6-methy]phenvn-2-[F6-[4-(2-hvdroxvethvl)-L-piperazin-vil-2-methvil-4-pvrimidinvllaminol-5-thiazolecarboxamide and their process thereof” (MSN LABORATORIES PRIVATE LIMITED, priority 2015, dated 2019)

How the values were obtained:
[1] = Solubility of the 1,2-propanediol solvate (stated advantage, no method given); assay type: physicochemical; conditions: advantageous property found by the inventors; no solvent or value given
[2] = cited from earlier work

Structure (SMILES)	solubility [1]	solubility in alcoholic solvents ([2]; alcoholic solvents like ethanol and methanol)	solubility in water ([2]; water)
Cc1nc(Nc2ncc(C(=O)Nc3c(C)cccc3Cl)s2)cc(N2CCN(CCO)CC2)n1 [1,2-propanediol solvate, 1,2-Propanediol solvate of N-(2-chloro-6-methylphenyl)-2-[[6-[4-(2-hydroxyethyl)-1-piperazinyl]-2-methyl-4-pyrimidinyl]amino]-5-thiazolecarboxamide]	good solubility	–	–
Cc1nc(Nc2ncc(C(=O)Nc3c(C)cccc3Cl)s2)cc(N2CCN(CCO)CC2)n1 [Dasatinib, N-(2-chloro-6-methylphenyl)-2-[[6-[4-(2-hydroxyethyl)-1-piperazinyl]-2-methyl-4-pyrimidinyl]amino]-5-thiazole carboxamide]	–	slightly soluble	insoluble
